Reference: US20030124105A1, “PROGRAMMED CELL DEATH GENES AND PROTEINS” (priority 1993, published 2003)

Tests used:
HeLa cells = type: cell-based, human
HeLa/crmA cells = details: CHX 20 μg/ml, TNF-a 5 ng/ml, 24 h, trypan blue dye exclusion, mean ± SEM
Method: Dosage response of HeLa and HeLa/crmA cells to TNF-α treatment was tested as follows. Cells were seeded in DMEM plus 10% fetal calf serum in a 24-well plate at a density of 4×10^4 cells per well. After overnight incubation, the cells were washed twice with serum-free DMEM. Drugs were then added to a total volume of 0.2 ml of serum-free DMEM and the cells were incubated for 24 hours. Cells were then trypsinized and dead cells scored on a hemocytometer by trypan blue exclusion (Sigma, St. Louis, Mo.). At least 200 cells were scored per well. Each concentration was tested in duplicate each time.
The effect of crmA expression on TNF-induced apoptosis was tested. […] HeLa cells or HeLa/crmA cells were treated with cycloheximide (CHX) (20 μg/ml, Sigma), TNF-α (5 ng/ml, Sigma), or a combination of both drugs. […] Control HeLa and HeLa/crmA cells were tested for the ability to resist increasing amounts of TNF-α in the presence of 10 μg/ml CHX (FIG. 18). […] The dose response of crmA-expressing HeLa cells to increasing amounts of TNF-α in the presence of 10 μg/ml of CHX was tested.

C[C@@H]1C[C@@H]([C@H](O)CC2CC(=O)NC(=O)C2)C(=O)[C@@H](C)C1 [CHX, cycloheximide]
% dead cells (HeLa cells): 2.9 ± 0.7% | % dead cells (HeLa/crmA cells): 3.8 ± 0.5%
